From US20140004209A1, “AUTOPHAGY INDUCER AND INHIBITOR COMBINATION THERAPY FOR THE TREATMENT OF NEOPLASMS” (GENENTECH, INC., priority 2010, published 2014)
“Also recorded” adds a separate entry of the source. Read-outs that look alike come from different tables or passages of the source.

How the values were obtained:
[1] = system: MDA-MB-231 (Kras, Braf, p53 mut, Triple- and Basal) cell line; experiment: CellTiter-Glo growth inhibition, III-4 and CQ combination; format: cell-based
From the text: (§1) FIG. 26B depicts the CI (combination index) by using bar graphs for data obtained by CellTiter-Glo assay at day 4 of treatment with 10% serum.

multiple cell lines = experiment: ED50 of CQ, AKTi and combination by CellTiter-Glo in multiple cell lines; format: cell-based; settings: day 4, 10% serum
From the text: as §1

PC3 cells [2] = experiment: Microarray analysis of autophagy gene expression in PC3 cells; format: cell-based, human; settings: 1 or 5 μM for 6 or 24 hours, normalized to DMSO
Description: PC3 cells were induced to express shRNA to indicated Akt isoforms for 72 hours by Doxycycline, RNA was extracted from both Dox treated (Dox+) or untreated control (Dox−) cells. Microarray analysis was carried out using Affymetrix chips. Ratios of the expression levels of each autophagy gene from Dox+ and Dox− samples are shown. Data are mean values from 3 independent experiments.
RNA was extracted from the cells. Microarray analysis was carried out using Affymetrix chips. Expression levels of each autophagy gene are normalized to the DMSO controls. Data are mean values from 3 independent experiments.

[3] = system: U87MG (PTEN-, PI3K mut (1391M)) cell line; experiment: CellTiter-Glo growth inhibition, III-4 and CQ combination; format: cell-based, human; settings: 1:1.5 ratio
Description: as §1
FIGS. 30A-B depicts data for the U87MG (PTEN-, PI3K mut (1391M)) cell line.

[4] = system: PC3 (PTEN-, p53- and Al) cell line; experiment: as above; format: cell-based, human; settings: 1:25 ratio
From the text: as §1
FIGS. 27A-B depicts data for the PC3 (PTEN-, p53- and Al) cell line.

[5] = Cell death in combination with CQ (FIG. 17); format: cell-based
[6] = system: MDA-361.1 (PI2-K mut (E545K), Her2+, HR+ and Luminal) cell line; experiment: CellTiter-Glo growth inhibition, III-4 and CQ combination; format: cell-based; settings: 1:12.5 ratio
From the text: as §1
FIGS. 28A-B depicts data for the MDA-361.1 (PI2-K mut (E545K), Her2+, HR+ and Luminal) cell line.

PC3 cells [7] = experiment: Autophagy markers in PC3 cells (EM AVs, GFP-LC3, LC3-II/LC3-I, MDC, AO); format: cell-based, human
class I PI3Ks and mTOR = settings: cited from earlier work
PC3 cells [8] = experiment: PC3 cell viability and cell death (PI exclusion, annexin V, caspase-3/7); format: cell-based, human; settings: 0.5 μM III-5, 10 μM CQ, 0.5% FBS
Description: Cell viability and cell cycle analysis. Cell number and viability was measured using trypan blue exclusion assay using a Vi-Cell Analyzer (Beckman Coulter), or labeled with 1 μg/ml PI in PBS/1% BSA followed by cytofluorometric analysis with a fluorescence-activated cell sorter (FACS) (Becton Dickinson). FITC-conjugated Annexin V was used for the assessment of phosphatidylserine exposure by FACS analysis. Caspase activation was analyzed using a Caspase-Glo 3/7 Assay kit (Promega). For cell cycle analysis, cells were fixed with drop-wise addition of chilled 70% ethanol, washed with PBS and resuspended in staining solution containing 50 μg/ml PI and 60 units of RNAse A. DNA content was analyzed by flow cytometry using the FlowJo and ModFit software (Becton Dickinson).

class III PI3K = class III PI3K (Homo sapiens, UniProt Q8NEB9); settings: cited from earlier work
Chain of class III PI3K (Q8NEB9 whole entry): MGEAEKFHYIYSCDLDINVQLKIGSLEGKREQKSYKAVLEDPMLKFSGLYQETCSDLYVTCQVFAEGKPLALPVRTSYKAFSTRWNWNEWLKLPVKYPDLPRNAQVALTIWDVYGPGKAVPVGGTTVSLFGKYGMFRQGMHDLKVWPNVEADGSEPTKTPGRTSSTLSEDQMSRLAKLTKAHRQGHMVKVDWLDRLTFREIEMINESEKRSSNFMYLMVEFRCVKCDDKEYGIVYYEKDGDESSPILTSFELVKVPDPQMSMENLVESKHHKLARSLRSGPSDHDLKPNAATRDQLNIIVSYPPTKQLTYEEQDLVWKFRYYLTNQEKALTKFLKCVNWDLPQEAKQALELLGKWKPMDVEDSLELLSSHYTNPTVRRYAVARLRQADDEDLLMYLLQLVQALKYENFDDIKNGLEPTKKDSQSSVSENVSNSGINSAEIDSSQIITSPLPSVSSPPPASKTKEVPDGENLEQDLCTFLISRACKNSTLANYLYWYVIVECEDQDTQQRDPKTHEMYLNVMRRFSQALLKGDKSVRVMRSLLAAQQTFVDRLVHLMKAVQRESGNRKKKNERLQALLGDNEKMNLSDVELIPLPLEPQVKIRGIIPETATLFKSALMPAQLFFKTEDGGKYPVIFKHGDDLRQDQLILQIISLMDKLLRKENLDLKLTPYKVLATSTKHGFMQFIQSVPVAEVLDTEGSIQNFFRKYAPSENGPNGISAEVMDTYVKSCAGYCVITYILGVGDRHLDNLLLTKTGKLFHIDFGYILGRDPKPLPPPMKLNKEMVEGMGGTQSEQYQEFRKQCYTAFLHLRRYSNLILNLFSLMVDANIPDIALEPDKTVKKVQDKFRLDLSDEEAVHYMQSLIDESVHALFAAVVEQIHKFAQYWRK

Structure (SMILES) | growth inhibition, III-4 and CQ combination vs single agents [1] | ED50 of combination with CQ vs single agents (multiple cell lines) | autophagy gene expression (PC3 cells [2]) | growth inhibition, III-4 and CQ combination vs single agents [3] | growth inhibition, III-4 and CQ combination vs single agents [4] | interaction with CQ on cell death [5] | growth inhibition, III-4 and CQ combination vs single agents [6] | induction of AV accumulation / autophagy, agent alone (PC3 cells [7]) | MDC+ vacuoles, III-5 in combination with CQ (PC3 cells [7]; 0.5 μM III-5, 10 μM CQ, 48 h) | induction of AV accumulation / autophagy, agent alone (PC3 cells [7]; listed as PI-103) | inhibition of the class I PI3Ks and mTOR (class I PI3Ks and mTOR) | cell death, III-5 (PI-103) in combination with CQ (PC3 cells [8]) | cell death, III-5 (PI-103) in combination with CQ (PC3 cells [8]; listed as PI-103) | more potent on class I than class III PI3K (class III PI3K) | less potent on the class III PI3K (class III PI3K; relative to class I PI3Ks and mTOR)
CC(C)NC[C@@H](C(=O)N1CCN(c2ncnc3c2[C@H](C)C[C@H]3O)CC1)c1ccc(Cl)cc1 [III-4, (S)-2-(4-chlorophenyl)-1-(4-((5R,7R)-7-hydroxy-5-methyl-6,7-dihydro-5H-cyclopenta[d]pyrimidin-4-yl)piperazin-1-yl)-3-(isopropylamino)propan-1-one] | the combination inhibits growth in the cell line at lower concentrations of III-4 than either III-4 alone or CQ alone | significantly lowers the ED50 for both the AKTi and CQ | induce autophagy gene expression | the combination inhibits growth in the cell line at lower concentrations of III-4 than either III-4 alone or CQ alone | the combination inhibits growth in the cell line at lower concentrations of III-4 than either III-4 alone or CQ alone | synergize with CQ to accelerate cell death | the combination inhibits growth in the cell line at lower concentrations of III-4 than either III-4 alone or CQ alone | – | – | – | – | – | – | – | –
Oc1cccc(-c2nc(N3CCOCC3)c3oc4ncccc4c3n2)c1 [III-5] | – | – | – | – | – | – | – | potent at inducing the accumulation of AVs | CQ dramatically increased the size and number of MDC+ vacuoles | induced overt autophagy | nanomolar concentrations | CQ accelerated cell death in combination with III-5; also recorded: combination with CQ accelerated the death of cells | significantly accelerated death rate | 1,000 × | > 1,000 fold
